Results on 28 molecules are retold here after patent publication US9056876B2, “Substituted 1H-pyrazolo[3′,4′,4,5]thieno[2,3-b]pyridin-3-amine analogs as positive allosteric modulators of the muscarinic acetylcholine receptor M4” (VANDERBILT UNIVERSITY, priority 2011, dated 2015).

For the test, the target named is T1, mAChR M4 (UniProt P08173).
T1 construct: hM1 and hM4 cDNAs were purchased from Missouri S&T cDNA Resource
T1 sequence (P08173 1-479): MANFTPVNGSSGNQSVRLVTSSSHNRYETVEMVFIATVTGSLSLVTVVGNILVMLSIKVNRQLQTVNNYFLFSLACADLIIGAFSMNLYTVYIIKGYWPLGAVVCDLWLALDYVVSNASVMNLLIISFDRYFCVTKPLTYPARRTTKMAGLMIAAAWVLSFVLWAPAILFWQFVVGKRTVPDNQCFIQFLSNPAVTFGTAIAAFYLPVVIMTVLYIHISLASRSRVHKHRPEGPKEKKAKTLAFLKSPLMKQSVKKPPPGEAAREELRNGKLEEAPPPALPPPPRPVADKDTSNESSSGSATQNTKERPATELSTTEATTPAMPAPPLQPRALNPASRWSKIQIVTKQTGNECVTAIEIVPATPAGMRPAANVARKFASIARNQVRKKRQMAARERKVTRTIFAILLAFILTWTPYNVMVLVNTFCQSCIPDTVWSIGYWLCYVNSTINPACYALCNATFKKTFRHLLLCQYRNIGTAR
Kind of test: mAChR M4 cell-based functional assay (calcium mobilization, Fluo-4, FDSS). To be noted: for Emax (%)*: % ACh maximum at 30 μM; for pEC50: positive allosteric modulator activity, EC20 acetylcholine response; for pEC50 / EC50: CHO-K1 cells; for EC50: positive allosteric modulator activity: concentration-dependent increase in the EC20 acetylcholine response, >10 μM estimated for low potency (no plateau). The method, boiled down: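 CHO-K1 cells stably expressing hM4 or rM4 with chimeric Gqi5, loaded with Fluo-4 AM for 50 min at 37° C. Calcium read on FDSS 6000 over 300 s: compound added at 4 s, acetylcholine EC20 at 144 s and EC80 at 230 s. Agonist, PAM (EC20 increase) and antagonist (EC80 decrease) values fitted by four-parameter logistic.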

Take `Cc1cc(C)c2c(n1)sc1c(NCc3ccccn3)nn(C)c12` [Compound 77, 1,6,8-trimethyl-N-(pyridin-2-ylmethyl)-1H-pyrazolo[3′,4′:4,5]thieno[2,3-b]pyridin-3-amine]: the “Emax (%)*” value came to 55%, the pEC50 was 6.27 and the EC50 is 540 nM.
`Cc1cc(C)c2c(n1)sc1c(NCc3ccc(F)cc3)n[nH]c12` [Compound 4, N-(4-fluorobenzyl)-6,8-dimethyl-1H-pyrazolo[3′,4′:4,5]thieno[2,3-b]pyridin-3-amine]: the “Emax (%)*” value is recorded as 54%, the negative-log EC50 (pEC50) is 5.99 and the EC50 is 1030 nM.
As for `CC(=O)Nc1n[nH]c2c1sc1nc(C)cc(C)c12` [Compound 126, N-(6,8-dimethyl-1H-pyrazolo[3′,4′:4,5]thieno[2,3-b]pyridin-3-yl)acetamide], the pEC50 is given as <5.00 and the EC50 is > 10000 nM.
Regarding `Cc1ccnc2sc3c(NCc4ccco4)nn(C)c3c12` [Compound 71, N-(furan-2-ylmethyl)-1,8-dimethyl-1H-pyrazolo[3′,4′:4,5]thieno[2,3-b]pyridin-3-amine], the “Emax (%)*” value is 66%, the pEC50 stood at 6.00 and the EC50 was 1000 nM.
`Cc1cc(C)c2c(n1)sc1c(NCc3cccc4c3OCO4)nn(C)c12` [Compound 84, N-(benzo[d][1,3]dioxol-4-ylmethyl)-1,6,8-trimethyl-1H-pyrazolo[3′,4′:4,5]thieno[2,3-b]pyridin-3-amine]: the “Emax (%)*” value was 50%, the pEC50 is 6.72 and the EC50 is 190 nM.
For the molecule `Cc1cc(C)c2c(n1)sc1c(NCc3ccc(C#N)c(F)c3)nn(C)c12` [Compound 90, 2-fluoro-4-(((1,6,8-trimethyl-1H-pyrazolo[3′,4′:4,5]thieno[2,3-b]pyridin-3-yl)amino)methyl)benzonitrile], the “Emax (%)*” value worked out at 52%, the pEC50 is 6.60 and the EC50 is 250 nM.
For `Cc1cc(C)c2c(n1)sc1c(NCc3cccs3)n[nH]c12` [Compound 36, 6,8-dimethyl-N-(thiophen-2-ylmethyl)-1H-pyrazolo[3′,4′:4,5]thieno[2,3-b]pyridin-3-amine], the “Emax (%)*” value stood at 78%, the pEC50 is on record as 6.20 and the EC50 was 630 nM.
Regarding `Cc1cc(C)c2c(n1)sc1c(NC3CCCC3)n[nH]c12` [Compound 10, N-cyclopentyl-6,8-dimethyl-1H-pyrazolo[3′,4′:4,5]thieno[2,3-b]pyridin-3-amine], the “Emax (%)*” value amounted to 55%, the pEC50 is on record as 5.76 and the EC50 was 1740 nM.
Regarding `Cc1cc(C)c2c(n1)sc1c(NC3CCCN(C(=O)OC(C)(C)C)C3)n[nH]c12` (centres unmarked) [Compound 135, tert-butyl 3-((6,8-dimethyl-1H-pyrazolo[3′,4′:4,5]thieno[2,3-b]pyridin-3-yl)amino)piperidine-1-carboxylate], the pEC50 is <5.00 and the EC50 is > 10000 nM.
`Cc1cc(C)c2c(n1)sc1c(NCc3ccc(S(C)(=O)=O)c(F)c3)nn(C)c12` [Compound 94, N-(3-fluoro-4-(methylsulfonyl)benzyl)-1,6,8-trimethyl-1H-pyrazolo[3′,4′:4,5]thieno[2,3-b]pyridin-3-amine]: the “Emax (%)*” value was determined as 74%, the pEC50 is on record as 7.09 and the 50% effective concentration (EC50) was 81 nM.
Regarding `Cc1cc(C)c2c(n1)sc1c(NC3CNC3)nn(C)c12` [Compound 102, N-(azetidin-3-yl)-1,6,8-trimethyl-1H-pyrazolo[3′,4′:4,5]thieno[2,3-b]pyridin-3-amine], the “Emax (%)*” value was determined as 69%, the pEC50 is listed as 5.96 and the EC50 is 1100 nM.
Consider `Cc1nc2sc3c(NCc4ccco4)nn(C)c3c2c(C)c1Cl` [Compound 25, 7-chloro-N-(furan-2-ylmethyl)-1,6,8-trimethyl-1H-pyrazolo[3′,4′:4,5]thieno[2,3-b]pyridin-3-amine], for which the “Emax (%)*” value came to 57%, the pEC50 was 6.66 and the concentration giving a half-maximal response (EC50) was 220 nM.
With `Cc1nc2sc3c(NCc4ccc(F)c(F)c4)n[nH]c3c2c(C)c1Cl` [Compound 146, 7-chloro-N-(3,4-difluorobenzyl)-6,8-dimethyl-1H-pyrazolo[3′,4′:4,5]thieno[2,3-b]pyridin-3-amine], the pEC50 is <5.00 and the EC50 is > 10000 nM.
As for `Cc1ccc2c(n1)sc1c(NC(=O)c3ccc(Br)cc3)n[nH]c12` [Compound 151, 4-bromo-N-(6-methyl-1H-pyrazolo[3′,4′:4,5]thieno[2,3-b]pyridin-3-yl)benzamide], the pEC50 is given as <5.00 and the EC50 was > 10000 nM.
In the same order, the values of `Cc1cc(C)c2c(n1)sc1c(NC3CCN(C(C)C)CC3)nn(C)c12` [Compound 162, N-(1-isopropylpiperidin-4-yl)-1,6,8-trimethyl-1H-pyrazolo[3′,4′:4,5]thieno[2,3-b]pyridin-3-amine] are <5.00 and > 10000 nM.
Regarding `Cc1cc(C)c2c(n1)sc1c(NC3CCSCC3)n[nH]c12` [Compound 12, 6,8-dimethyl-N-(tetrahydro-2H-thiopyran-4-yl)-1H-pyrazolo[3′,4′:4,5]thieno[2,3-b]pyridin-3-amine], the “Emax (%)*” value stood at 38%, the pEC50 came out at 5.36 and the EC50 was 4390 nM.
Consider `Cc1ccc2c(n1)sc1c(NCc3ccccc3)nn(C)c12` [Compound 53, N-benzyl-1,6-dimethyl-1H-pyrazolo[3′,4′:4,5]thieno[2,3-b]pyridin-3-amine], for which the “Emax (%)*” value is given as 70%, the pEC50 is 6.08 and the EC50 is 840 nM.
In the same order, the values of `Cc1ccc2c(n1)sc1c(NCc3ccco3)n[nH]c12` [Compound 44, N-(furan-2-ylmethyl)-6-methyl-1H-pyrazolo[3′,4′:4,5]thieno[2,3-b]pyridin-3-amine] are 62%, 5.30 and 5000 nM.
Regarding `CCCn1nc(N)c2sc3nc(C)cc(C)c3c21` [Compound 166, 6,8-dimethyl-1-propyl-1H-pyrazolo[3′,4′:4,5]thieno[2,3-b]pyridin-3-amine], the pEC50 is recorded as <5.00 and the EC50 is > 10000 nM.
Regarding `COc1cccc(C(=O)Nc2n[nH]c3c2sc2nc(C)cc(C)c23)c1` [Compound 127, N-(6,8-dimethyl-1H-pyrazolo[3′,4′:4,5]thieno[2,3-b]pyridin-3-yl)-3-methoxybenzamide], the pEC50 is given as <5.00 and the EC50 is > 10000 nM.
On to `Cc1ccc2c(n1)sc1c(NCCC(C)C)n[nH]c12` [Compound 156, N-isopentyl-6-methyl-1H-pyrazolo[3′,4′:4,5]thieno[2,3-b]pyridin-3-amine], for which the pEC50 is <5.00 and the EC50 is > 10000 nM.
As for `Cc1cc(C)c2c(n1)sc1c(NCc3ccc(Cl)o3)nn(C)c12` [Compound 79, N-((5-chlorofuran-2-yl)methyl)-1,6,8-trimethyl-1H-pyrazolo[3′,4′:4,5]thieno[2,3-b]pyridin-3-amine], the “Emax (%)*” value came out at 80%, the pEC50 is listed as 6.51 and the EC50 was 310 nM.
Take `Cc1cc(C)c2c(n1)sc1c(N)nn(CCO)c12` [Compound 96, 2-(3-amino-6,8-dimethyl-1H-pyrazolo[3′,4′:4,5]thieno[2,3-b]pyridin-1-yl)ethanol]: the “Emax (%)*” value worked out at 37%, the pEC50 was determined as 5.27 and the EC50 is 5400 nM.
For `Cc1cc(C)c2c(n1)sc1c(NC3CCN(C(C)C)CC3)n[nH]c12` [Compound 131, N-(1-isopropylpiperidin-4-yl)-6,8-dimethyl-1H-pyrazolo[3′,4′:4,5]thieno[2,3-b]pyridin-3-amine], the pEC50 is <5.00 and the EC50 is > 10000 nM.
As for `Cc1ccc2c(n1)sc1c(NCc3ccccc3)n[nH]c12` [Compound 50, N-benzyl-6-methyl-1H-pyrazolo[3′,4′:4,5]thieno[2,3-b]pyridin-3-amine], the “Emax (%)*” value came to 57%, the pEC50 is given as 5.60 and the EC50 was 2500 nM.
Consider `CCC(=O)Nc1nn(C)c2c1sc1nc(C)cc(C)c12` [Compound 47, N-(1,6,8-trimethyl-1H-pyrazolo[3′,4′:4,5]thieno[2,3-b]pyridin-3-yl)propionamide], for which the “Emax (%)*” value is on record as 43%, the pEC50 is listed as 5.54 and the EC50 is 2900 nM.
On to `Cc1nc2sc3c(NCc4ccccc4F)n[nH]c3c2c(C)c1Cl` [Compound 147, 7-chloro-N-(2-fluorobenzyl)-6,8-dimethyl-1H-pyrazolo[3′,4′:4,5]thieno[2,3-b]pyridin-3-amine], for which the pEC50 is listed as <5.00 and the EC50 was > 10000 nM.
For `Cc1cc(C)c2c(n1)sc1c(NC3CN(C(=O)OC(C)(C)C)C3)nn(C)c12` [Compound 106, tert-butyl 3-((1,6,8-trimethyl-1H-pyrazolo[3′,4′:4,5]thieno[2,3-b]pyridin-3-yl)amino)azetidine-1-carboxylate], the “Emax (%)*” value came out at 73%, the pEC50 is given as 7.57 and the EC50 was 27 nM.

The pEC50 is −log10 of the EC50, conventionally taken in molar units. By EC50 is commonly meant the concentration giving half of the maximal effect.
